Measured values as given in patent US20260174677A1, “METHODS OF TREATING INSULIN RESISTANCE AND ASSOCIATED DISORDERS” (The University of Melboune, priority 2022, published 2026).
“Also recorded” adds a separate entry of the source.

Columns and labels:
CSPG-ECM = test: I.C.V. fluorosamine in obese mice: WFA immunostaining of CSPG-ECM in brain areas; format: in vivo, mouse
Method: For detection of aggrecan, GFP, HABP, parvalbumin, mCherry, versican, tenascin-C, HAPLN1, neurocan, phosphacan, brevican, WFA and WFA-FITC sections were incubated at room temperature for 1 h in blocking buffer (0.3% Triton X-100, 5% normal goat serum, Gibco, ThermoFisher, MA, 0.02% sodium azide) and then overnight at 4° C. in 1% blocking buffer containing either rabbit anti-aggrecan (1:1000, AB1031, Millipore, MA), chicken anti-GFP (1:2000; ab13970, Abcam, Cambridge, UK), Biotinylated HABP (1:100, 385911, Burlington, MA), sheep anti-parvalbumin (1:1000), in house), rabbit anti-dsRed (1:2000, 600-401-379, Rockland, PA), rabbit anti-versican (1:1000, AB1033, Millipore, MA), tenascin-C (1:500, M1-B4, Developmental Studies Hybridoma Bank, Iowa), HAPLN1 (1:500, 9/30/8-A-4, Developmental Studies Hybridoma Bank, Iowa), neurocan (1:300, 1F6-S, Developmental Studies Hybridoma Bank, Iowa), phophacan (1:300, 3F8, Developmental Studies Hybridoma Bank, Iowa), brevican (1:500, 610895, BD Transduction Laboratories), biotinylated WFA (1:2000, L1516; Sigma-Aldrich, MO), WFA-FITC (1:2000, FL-1351-2, Vector Laboratories, CA), rabbit anti PGP9.5 (1:1000, 14730-1-AP, Proteintech, IL), guinea pig anti AgRP (1:500, AS506, Antibodies Australia, Melbourne, AUS). […]
All image quantification was performed in Image J (NIH) software (NIH, MA). […] To quantify area and intensity of the CSPG-ECM within each brain region (ARC, VMH or RSG cortex) images were thresholded and binarized to create a region of interest (ROI) mask of only the CSPG-ECM. For each brain area, CSPG-ECM ROI area (μm^2) and intensity (sum of all pixel intensities within the ROI) was calculated. […]

[1] = I.C.V. fluorosamine: hyperinsulinemic-euglycemic clamps in weight matched obese mice; format: in vivo, mouse; conditions: I.C.V. daily for 3 days
Method: For hyperinsulinemic-euglycemic clamps, mice were anesthetised under isoflurane and the right jugular vein was catheterised for infusions, as described previously by Dodd et al., 2018. Catheters were attached to an implant button (BMSW25, RWD Life Sciences, Shenzhen, China). Implant buttons were capped allowing for group mousing of mice and catheters were kept patent by flushing daily with 40 μL saline containing 200 units/mL heparin. On the day of the experiment, food was removed at 7:00 A.M. After 3.5 h fasting, a primed (1 min, 1.25 uCi/min) continuous infusion (0.05 uCi/min) of [3-3H]glucose (NET331A001MC, PerkinElmer, MA) was administered to measure whole-body glucose turnover, as described previously by Dodd et al., 2018. 90 minutes later, mice received a 40 mU/Kg insulin bolus over 10 mins which was followed by continuous insulin infusion (4 mU/kg/min in gelofusine). Euglycemia (˜8-10 mM blood glucose) was maintained by a variable infusion of a 30% glucose solution.
Tail blood samples were collected during steady-state conditions (Ra=Rd) and at 80, 90, 100, 110, and 120 min for determination of Rd and Ra, as described above. At 120 mins, a 13 uCi bolus of [^14C]-2-deoxy-D-glucose (NEC495A250UC, PerkinElmer, MA) was injected into the jugular vein, and blood was sampled at 122, 125, 135, 145, and 155 min. […]

Compound: CC(=O)NC1C(OC(C)=O)OC(COC(C)=O)[C@@H](F)C1OC(C)=O (stereo partly shown) [fluorosamine, per-O-acetylated-4-F-N-acetylglucosamine]
- CSPG-ECM in other brain areas such as the RSG cortex (CSPG-ECM; I.C.V. daily for 10 days): did not reduce CSPG-ECM
- neurofibrosis (CSPG-ECM, WFA immunostaining) within the ARC (CSPG-ECM; I.C.V. daily for 10 days): significantly attenuated neurofibrosis within the ARC; also recorded: preferentially attenuates CSPG-ECM in the ARC
- CSPG-ECM expression in the habenula (CSPG-ECM; I.C.V., highest dose): only partially attenuated expression
- whole-body insulin sensitivity (GIR) in clamp [1]: enhancement of whole-body insulin sensitivity
